Laboratory results reported in patent US12721848B2, “Pharmaceutical composition for preventing or treating graft versus host disease comprising thiamine derivatives” (Kyungpook National University Industry-Academic Cooperation …, priority 2020, dated 2026).

Experiments:
[1] = tested on: allo-reactive CD4+IFNg+ T cell generation; test: mixed lymphocyte reaction (GVHD in vitro validation model), flow cytometry; format: cell-based, mouse; details: for Amount of generation (%) of CD4+IFNg+ T cells: BALB/c irradiated splenocytes + C57BL6/J CD4+ T cells, 5 days, positive control 37.4, syngeneic control 15.3
Description: A high amount of CD4+IFNg+ T cell generated can be inferred to allow the proliferation of T cells against allogenic antigens, thereby attacking the body organs of a patient. Therefore, a graft versus host disease (GVHD) in vitro validation model was subjected to a mixed lymphocyte reaction to compare the degree of allo-reactive CD4+IFNg+ T cell generation among thiamine derivatives by flow cytometry.
Specifically, BALB/c mice were sacrificed by cervical dislocation, and then the spleens were extracted, followed by erythrocyte lysis using ACK lysing buffer. Thereafter, the isolated spleen cells were irradiated at 2500 cGy.
The positive group was treated with 10, 50, and 100 uM benfotiamine, 1, 5, and 10 uM allithiamine, and 10, 50, and 100 uM fursultiamine to prepare experimental groups.
Thereafter, the cells were cultured in RPMI1640 (10% FBS, 1% penicillin streptomycin) at 37° C. for 5 days, and the cells were separated, followed by flow cytometry, to investigate the degree of CD4+IFNg+ T cell generation.

[2] = tested on: graft versus host disease (GVHD) model mice
Description: Referring to FIG. 2A, 5-week-old BALB/c male mice were acclimatized for 1 week, irradiated with 800 cGy radiation throughout the body, and then injected with 5×10^6 C57BL/6J-derived bone marrow cells and 1×10^7 splenocytes derived therefrom via IV injection, thereby constructing a GVHD in vivo model (positive control group, Positive). The syngeneic control group (Syngeneic) was constructed in the same manner as above while BALB/c-derived bone marrow cells were selected as the bone marrow cells to be injected.
The fursultiamine administration group (Fur50) was constructed by daily oral gavage of fursultiamine HCl at 50 mg/kg to the GVHD in vivo model.
The treatment effect of fursultiamine was investigated on the constructed experimental groups by measuring the change in weight every 3 days.
On Day 14, the comparison between the amounts of generation of CD4+ T cells and CD4+IFNg+ T cells, which are major factors causing GVHD, was performed in the spleens isolated from the mice.
On Day 14 of inducing the GVHD in vivo model, liver and large intestine tissues were extracted from the mice, fixed in 4% paraformaldehyde for 48 hours, and then embedded in paraffin. The resultant tissues were sliced into 5 μm sections and then subjected to hematoxylin and eosin (H&E) staining. (bar=100 um)

[3] = spleen, Day 14, 50 mg/kg daily oral, in words

| SMILES | Amount of generation (%) of CD4+IFNg+ T cells ([1]; 10 μM) [%] | Amount of generation (%) of CD4+IFNg+ T cells ([1]; 50 μM) [%] | Amount of generation (%) of CD4+IFNg+ T cells ([1]; 100 μM) [%] | degree of generation of CD4+IFNg+ T cells compared with the positive control ([1]; at 50 uM or more, concentration dependent) | infiltration of immune cells in the liver tissue (H&E staining) ([2]; Day 14, 50 mg/kg daily oral, versus positive control group) | degree of infiltration of inflammatory cells into the liver and colon ([2]; GVHD-induced mouse model, summary statement) | change in weight compared with the GVHD in vivo model ([2]; fursultiamine HCl 50 mg/kg daily oral gavage, Day 12 of oral administration) | amount of generation of allogenic CD4+ T cells [2, 3] | amount of generation of allogenic CD4+IFNg+ T cells [2, 3] | Amount of generation of CD4+IFNg+ T cells (%) ([2]; spleen, Day 14, fursultiamine HCl 50 mg/kg daily oral gavage, positive control 18.3, syngeneic control 3.2) | Amount of generation of CD4+ T cells (%) ([2]; spleen, Day 14, fursultiamine HCl 50 mg/kg daily oral gavage, positive control 21.1, syngeneic control 6.9) | Amount of generation (%) of CD4+IFNg+ T cells ([1]; 1 μM) [%] | Amount of generation (%) of CD4+IFNg+ T cells ([1]; 5 μM) [%] | degree of generation of CD4+IFNg+ T cells compared with the positive control ([1]; at 5 uM or more, concentration dependent) | degree of generation of CD4+IFNg+ T cells compared with the positive control ([1]; regardless of the concentration (10, 50, 100 uM)) |
| --- | --- | --- | --- | --- | --- | --- | --- | --- | --- | --- | --- | --- | --- | --- | --- |
| CC(=C(CCO)SSCC1CCCO1)N(C=O)Cc1cnc(C)nc1N (stereo in doubt) [Fursultiamine, fursultiamine] | 34.9 | 13.6 | 12.5 | significant reduction | reduced | reducing the degree of infiltration | significant recovery | reduced | reduced | 12.6 | 13.4 |  |  |  |  |
| C=CCSS/C(CCO)=C(/C)N(C=O)Cc1cnc(C)nc1N [Allithiamine, allithiamine] | 23.9 |  |  |  |  |  |  |  |  |  |  | 35.2 | 25.7 | significant reduction |  |
| C/C(=C(\CCOP(=O)(O)O)SC(=O)c1ccccc1)N(C=O)Cc1cnc(C)nc1N [Benfotiamine, benfotiamine] | 36.8 | 43.9 | 40.1 |  |  |  |  |  |  |  |  |  |  |  | no significant difference |
